Laboratory results as given in the NIST ThermoML archive (doi:10.1016/j.fluid.2013.06.021).

Assay: xn = mol fraction of the nth substance listed
Details: 101 kPa, Liquid; for speed of sound: Sing-around technique in a fixed-path interferometer; for mass density: Vibrating tube method; for viscosity: Capillary tube (Ostwald / Ubbelohde) method

CCCCOCCO [2-butoxyethan-1-ol] + CCCO
Details | mass density [kg/m3] | speed of sound [m/s] | viscosity [mPa·s]
293.15 K, x1 = 0.052 | 812.72 | 1233.5 | –
293.15 K, x1 = 0.1024 | 820.5 | 1241.8 | –
293.15 K, x1 = 0.1524 | 827.69 | 1249.4 | –
293.15 K, x1 = 0.1986 | 833.97 | 1255.9 | –
293.15 K, x1 = 0.2528 | 840.79 | 1263 | –
293.15 K, x1 = 0.3032 | 846.73 | 1269.1 | –
293.15 K, x1 = 0.4064 | 857.67 | 1280.4 | –
293.15 K, x1 = 0.5015 | 866.6 | 1289.5 | –
293.15 K, x1 = 0.6031 | 875.08 | 1298.1 | –
293.15 K, x1 = 0.7006 | 882.33 | 1305.4 | –
293.15 K, x1 = 0.8022 | 889.07 | 1312.2 | –
293.15 K, x1 = 0.8553 | 892.31 | 1315.4 | –
293.15 K, x1 = 0.9066 | 895.25 | 1318.3 | –
293.15 K, x1 = 0.9516 | 897.7 | 1320.8 | –
298.15 K, x1 = 0.052 | 808.78 | 1216.5 | 1.991
298.15 K, x1 = 0.1024 | 816.6 | 1224.8 | 2.014
298.15 K, x1 = 0.1524 | 823.84 | 1232.3 | 2.048
298.15 K, x1 = 0.1986 | 830.06 | 1238.9 | 2.079
298.15 K, x1 = 0.2528 | 836.87 | 1245.9 | 2.122
298.15 K, x1 = 0.3032 | 842.76 | 1252 | 2.163
298.15 K, x1 = 0.4064 | 853.64 | 1263.3 | 2.256
298.15 K, x1 = 0.5015 | 862.56 | 1272.3 | 2.351
298.15 K, x1 = 0.6031 | 871.01 | 1280.9 | 2.457
298.15 K, x1 = 0.7006 | 878.24 | 1288.3 | 2.558
298.15 K, x1 = 0.8022 | 884.94 | 1295.1 | 2.666
298.15 K, x1 = 0.8553 | 888.19 | 1298.3 | 2.725
298.15 K, x1 = 0.9066 | 891.15 | 1301.3 | 2.779
298.15 K, x1 = 0.9516 | 893.62 | 1303.7 | 2.83
303.15 K, x1 = 0.052 | 804.75 | 1199.4 | 1.751
303.15 K, x1 = 0.1024 | 812.56 | 1207.8 | 1.776
303.15 K, x1 = 0.1524 | 819.76 | 1215.4 | 1.811
303.15 K, x1 = 0.1986 | 825.96 | 1221.9 | 1.844
303.15 K, x1 = 0.2528 | 832.81 | 1229 | 1.883
303.15 K, x1 = 0.3032 | 838.66 | 1235.1 | 1.925
303.15 K, x1 = 0.4064 | 849.51 | 1246.3 | 2.027
303.15 K, x1 = 0.5015 | 858.44 | 1255.4 | 2.129
303.15 K, x1 = 0.6031 | 866.86 | 1264 | 2.233
303.15 K, x1 = 0.7006 | 874.08 | 1271.3 | 2.338
303.15 K, x1 = 0.8022 | 880.81 | 1278 | 2.443
303.15 K, x1 = 0.8553 | 884.07 | 1281.3 | 2.505
303.15 K, x1 = 0.9066 | 887.02 | 1284.2 | 2.559
303.15 K, x1 = 0.9516 | 889.53 | 1286.6 | 2.615
308.15 K, x1 = 0.052 | 800.67 | 1182.4 | 1.578
308.15 K, x1 = 0.1024 | 808.47 | 1190.8 | 1.597
308.15 K, x1 = 0.1524 | 815.69 | 1198.4 | 1.627
308.15 K, x1 = 0.1986 | 821.89 | 1205 | 1.657
308.15 K, x1 = 0.2528 | 828.69 | 1212.1 | 1.69
308.15 K, x1 = 0.3032 | 834.55 | 1218.3 | 1.726
308.15 K, x1 = 0.4064 | 845.38 | 1229.5 | 1.804
308.15 K, x1 = 0.5015 | 854.29 | 1238.6 | 1.874
308.15 K, x1 = 0.6031 | 862.71 | 1247.2 | 1.953
308.15 K, x1 = 0.7006 | 869.93 | 1254.4 | 2.026
308.15 K, x1 = 0.8022 | 876.64 | 1261.1 | 2.11
308.15 K, x1 = 0.8553 | 879.9 | 1264.3 | 2.156
308.15 K, x1 = 0.9066 | 882.86 | 1267.2 | 2.188
308.15 K, x1 = 0.9516 | 885.32 | 1269.7 | 2.218
313.15 K, x1 = 0.052 | 796.66 | 1165.4 | –
313.15 K, x1 = 0.1024 | 804.45 | 1173.7 | –
313.15 K, x1 = 0.1524 | 811.62 | 1181.4 | –
313.15 K, x1 = 0.1986 | 817.8 | 1188 | –
313.15 K, x1 = 0.2528 | 824.54 | 1195.2 | –
313.15 K, x1 = 0.3032 | 830.4 | 1201.5 | –
313.15 K, x1 = 0.4064 | 841.23 | 1212.9 | –
313.15 K, x1 = 0.5015 | 850.1 | 1222 | –
313.15 K, x1 = 0.6031 | 858.52 | 1230.6 | –
313.15 K, x1 = 0.7006 | 865.71 | 1237.8 | –
313.15 K, x1 = 0.8022 | 872.48 | 1244.4 | –
313.15 K, x1 = 0.8553 | 875.69 | 1247.6 | –
313.15 K, x1 = 0.9066 | 878.69 | 1250.5 | –
313.15 K, x1 = 0.9516 | 881.14 | 1252.9 | –
